Assay results published in publication PMC10951960, “CGP7930 - An allosteric modulator of GABABRs, GABAARs and inwardly-rectifying potassium channels” (Neuropharmacology, 2023).

How the values were obtained:
[1] = molecular target: T1, Kir3.1/3.2 channels (GIRK) (Homo sapiens, UniProt P48051+P48549); assay: block of basally-active K+ currents in GIRK cells not expressing GABABRs, high K+ Krebs; assay type: cell-based
T1 construct: expressed in transfected cells
T1 sequence (P48549 1-501): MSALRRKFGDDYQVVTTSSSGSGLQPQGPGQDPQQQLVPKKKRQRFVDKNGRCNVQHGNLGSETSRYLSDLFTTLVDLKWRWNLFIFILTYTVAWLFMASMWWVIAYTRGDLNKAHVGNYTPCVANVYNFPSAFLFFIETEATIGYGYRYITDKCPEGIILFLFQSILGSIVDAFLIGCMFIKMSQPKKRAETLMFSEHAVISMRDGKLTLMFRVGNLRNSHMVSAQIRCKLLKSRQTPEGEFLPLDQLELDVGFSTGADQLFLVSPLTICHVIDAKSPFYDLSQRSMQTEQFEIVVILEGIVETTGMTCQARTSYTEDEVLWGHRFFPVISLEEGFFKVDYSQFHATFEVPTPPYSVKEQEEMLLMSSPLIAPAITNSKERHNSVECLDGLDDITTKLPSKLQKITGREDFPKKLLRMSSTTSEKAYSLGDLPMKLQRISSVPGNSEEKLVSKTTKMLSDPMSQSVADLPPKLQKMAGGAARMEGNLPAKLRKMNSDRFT
T1 sequence (P48051 1-423): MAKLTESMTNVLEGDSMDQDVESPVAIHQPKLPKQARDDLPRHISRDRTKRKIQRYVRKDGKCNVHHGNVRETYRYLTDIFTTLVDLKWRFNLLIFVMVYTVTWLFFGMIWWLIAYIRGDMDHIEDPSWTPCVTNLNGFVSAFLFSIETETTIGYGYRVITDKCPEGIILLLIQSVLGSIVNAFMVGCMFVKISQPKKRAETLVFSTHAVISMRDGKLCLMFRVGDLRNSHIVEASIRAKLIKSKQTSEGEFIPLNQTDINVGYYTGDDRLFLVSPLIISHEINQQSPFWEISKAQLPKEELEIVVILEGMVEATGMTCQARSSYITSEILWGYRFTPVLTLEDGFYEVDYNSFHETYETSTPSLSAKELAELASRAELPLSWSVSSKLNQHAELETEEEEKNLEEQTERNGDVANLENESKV
Protocol: HEK-293T cells were maintained in Dulbecco's modified Eagle's medium containing 10% (v/v) fetal calf serum (FCS), 100 U/ml penicillin-G, 100 μg/ml streptomycin in 95% air/5% CO2 at 37 °C. All cell culture reagents were acquired from ThermoFisher unless otherwise stated. Cells were plated on 22 mm glass coverslips (VWR, UK), coated with poly-L-lysine (Sigma) and transfected using a calcium phosphate method with cDNAs for eGFP, α, β, γ or δ, in a 1:1:1:1 ratio ([Hannan et al., 2020]) applied 1–2 h after cell plating. HEK-293 cells stably expressing Kir3.1/3.2 channels ([Leaney et al., 2000]) were grown in a selection media containing G418 (0.5 mg/ml) and Zeocin (0.4 mg/ml) and passaged, and plated, as for the HEK-293T cells above. These cells are referred to as GIRK cells throughout the text and were transiently transfected with cDNAs for eGFP, GABAB R1a and R2 in a 1:1:5 ratio applied 1–2 h after cell plating.
GABA-activated currents were recorded 24 h after transfection of HEK-293T or GIRK cells. Spontaneous inhibitory postsynaptic currents (sIPSCs) were recorded from cultured hippocampal neurons at 12–17 days in vitro (DIV). Cells were superfused with a saline solution containing (mM): 140 NaCl, 4.7 KCl, 2.52 CaCl2, 1.2 MgCl2, 11 glucose, and 5 HEPES; pH 7.4. sIPSCs from hippocampal culture neurons were recorded in the presence of 2 mM kynurenic acid to block excitatory neurotransmission. […] GABABR-activated K^+ currents in cultured neurons were recorded in the additional presence of 2 mM kynurenic acid and 20 μM picrotoxin.
Borosilicate glass electrodes (3–5 MΩ) were filled with a K^+-based internal solution for recording GIRK currents containing (mM): 120 KCl, 2 MgCl2, 11 EGTA, 30 KOH, 10 HEPES, 1 CaCl2, 1 GTP, 2 ATP, 14 creatine phosphate, pH 7.0. GABAAR currents and sIPSCs were recorded with a Cs-based internal solution containing (mM): 120 CsCl, 1 MgCl2, 11 EGTA, 30 KOH, 10 HEPES, 1 CaCl2, and 2 K2ATP; pH 7.2. […]

[2] = system: GABAARs in hippocampal neurons; assay: slow inward current directly activated by CGP7930 in hippocampal neurons in high K+ external solution and its block by GABAAR antagonists; assay type: cell-based, rat; conditions: hippocampal neurons, high external K+
Protocol: Spontaneous inhibitory postsynaptic currents (sIPSCs) were recorded from cultured hippocampal neurons at 12–17 days in vitro (DIV). […] For recording K^+ currents in GIRK cells and neurons, the bath solution was switched to a high K^+ solution containing 25 mM KCl and reduced NaCl (120 mM), to shift the equilibrium potential for K^+ from approximately −90 to −47 mV, thus reversing the direction of K^+ current flux to net inward. GABABR-activated K^+ currents in cultured neurons were recorded in the additional presence of 2 mM kynurenic acid and 20 μM picrotoxin.
CGP7930 modulation at neuronal GABABRs was also characterised using baclofen-activated GIRK currents in hippocampal cultures similarly bathed in a high external K^+ concentration.

effect on GIRK-mediated inwardly-rectifying currents (I–V, −20 to −120 mV) ([1]; 10 or 100 μM): inhibition | threshold for whole-cell outward currents ([1]; GIRK cells without GABABRs, −60 mV, high K+): 0.3 µM | effect on additional outward rectification (depolarising steps) ([1]; GIRK cells, I–V): inhibited
SMILES: CC(C)(CO)Cc1cc(C(C)(C)C)c(O)c(C(C)(C)C)c1 [CGP7930, 3-(3′,5′-Di-tert-butyl-4′-hydroxy) phenyl-2,2-dimethylpropanol]
concentration at which pre-application caused a slow inward current [2]: > 3 µM
